# Measured values published in US6441043B1, “Glyoxylic acid amides” (priority 1997, dated 2002).
# Assay: logP determination by HPLC (EEC directive 79/831 Annex V. A8)
# Assay type: physicochemical
# Conditions: HPLC gradient method, acetonitrile/0.1% aqueous phosphoric acid
# [1] = E/Z mixture, first value (matches the E isomer)
# [2] = E/Z mixture, second printed value (matches the Z isomer)
# [3] = single isomer (E or Z as in isomer column)
Compound,logP [1],logP [2],logP [3],further results
CCOc1ccc(CCNC(=O)C(=NOC)c2ccc(Br)cc2)cc1OC (mixture of isomers) [Example 3],3.18,3.44,,
CCOc1ccc(CCNC(=O)C(=NOC)c2ccc(C)cc2)cc1OC (mixture of isomers) [Example 5],2.87,3.05,,
CCOc1ccc(CCNC(=O)C(=NOC)c2ccc(CC)cc2)cc1OC (mixture of isomers) [Example 6],3.21,3.40,,
CCON=C(C(=O)NCCc1ccc(OCC)c(OC)c1)c1ccc(Br)cc1 (mixture of isomers) [Example 19],3.51,3.80,,
CCON=C(C(=O)NCCc1ccc(OCC)c(OC)c1)c1ccc(Cl)cc1 (mixture of isomers) [Example 21],3.41,3.69,,
CCON=C(C(=O)NCCc1ccc(OCC)c(OC)c1)c1ccc(C)cc1 (mixture of isomers) [Example 22],3.19,3.48,,
CCON=C(C(=O)NCCc1ccc(OCC)c(OC)c1)c1ccc(CC)cc1 (mixture of isomers) [Example 23],3.55,3.85,,
"CCOc1ccc(CCNC(=O)C(=NOC)c2ccc(Cl)cc2)cc1OC (racemic) [Example 1, N-[2-(4-ethoxy-3-methoxyphenyl)-1-ethyl]-2-methoxyimino-2-(4-chlorophenyl)-acetamide]",,,,chromatographic logP [1]: 3.08; chromatographic logP [2]: 3.26
CCOc1ccc(CCNC(=O)C(=NOC)c2ccc(Br)cc2)cc1OC [Example 9],,,3.44,
CCOc1ccc(CCNC(=O)C(=NOC)c2ccc(Br)cc2)cc1OC [Example 10],,,3.18,
CCOc1ccc(CCNC(=O)C(=NOC)c2ccc(Cl)cc2)cc1OC [Example 11],,,3.08,
CCOc1ccc(CCNC(=O)C(=NOC)c2ccc(Cl)cc2)cc1OC [Example 12],,,3.26,
CCOc1ccc(CCNC(=O)C(=NOC)c2ccc(C)cc2)cc1OC [Example 15],,,2.87,
CCOc1ccc(CCNC(=O)C(=NOC)c2ccc(CC)cc2)cc1OC [Example 16],,,3.04,
CCOc1ccc(CCNC(=O)C(=NOC)c2ccc(CC)cc2)cc1OC [Example 17],,,3.21,
CCON=C(C(=O)NCCc1ccc(OCC)c(OC)c1)c1ccc(Br)cc1 [Example 24],,,3.80,
CCON=C(C(=O)NCCc1ccc(OCC)c(OC)c1)c1ccc(C)cc1 [Example 27],,,3.48,
